From US6852909B2, “Process for producing female-sterile plants” (priority 1996, dated 2005)

Assays:
R. meliloti = assay: Sensitivity of R. meliloti to PTC and PTT; assay type: cell-based, Rhizobium meliloti
From the text: Plasmids pIB17.1 and pIB17.2 were therefore transferred by means of a 2 factor cross into the Rhizobium meliloti strain 2011.

[1] = system: glutamine synthetase (GS); details: cited from earlier work
plants [2] = details: in vivo; cited from earlier work
plants [3] = assay: Herbicidal activity, uptake, transport and deacetylation in plants; assay type: in vivo; details: for deacetylation activity in plants / uptake, transport and degradation in plants: in vivo; for herbicidal activity: plants without deacetylase gene
From the text: In this way, the above-described 2-gene system can be reduced to a 1-gene system and thereby crucially simplified, as explained in more detail below: any plants can be transformed with a Streptomycetes-derived deacetylase gene under the control of a tissue-specific promoter. Following application of N-acetylphosphinothricin or N-acetylphosphinothricin-tripeptide, the tissue-specific expression leads to the immediate death of the corresponding tissue.

Nicotiana tabacum = assay: Treatment of Nicotiana tabacum plants carrying the deacetylase gene; assay type: in vivo; details: transgenic Nicotiana tabacum, killed by liberated PTC or PTT
Experimental: The deacetylase gene which was modified in Example 1 was transferred into A. tumefaciens LBA4404 using a two-factor cross. Nicotiana tabacum leaf disks were incubated with the resulting strains LBA4404/17.1 and LBA4404/17.2 and, after 3 days, transferred to a kanamycin-containing shoot-inducing medium. Southern hybridization can be used to test regenerating kanamycin-resistant shoots for the presence of the deacetylase gene.

wild-type plant = assay: Injection of N-acetyl-PTC or N-acetyl-PTT into tobacco plants: stability, transport, effect on wild-type plant; assay type: in vivo
GS = details: E. coli with endogenous deacetylase activity
From the text: The deacetylase converts N-Ac-PTC into PTC, which then inhibits the GS in a known manner, as can be measured in a γ-glutamyltransferase assay (Bender et al., J. Bacteriol. 129, 1001-1009, 1977).

[4] = system: Gram-positive and Gram-negative bacteria; details: cited from earlier work
Botrytis cinerea = details: cited from earlier work

Row | Compound | sensitivity of R. meliloti (R. meliloti) | inhibitor of glutamine synthetase (GS) [1] | herbicidal action (plants [2]) | deacetylation activity in plants (plants [3]) | uptake, transport and degradation in plants (plants [3]) | herbicidal activity (plants [3]) | effect on plants containing the deacetylase gene (Nicotiana tabacum) | stability and transport in the plant cell (wild-type plant; in vivo) | consequences for the wild-type plant (wild-type plant) | inhibition of GS activity after adding the substance (GS) | activity against Gram-positive and Gram-negative bacteria [4] | activity against the fungus Botrytis cinerea (Botrytis cinerea)
1 | 2-amino-4-methylphosphinobutyric acid [PTC] | reacts very sensitively | inhibitor of glutamine synthetase | acts as a total herbicide |  |  |  |  |  |  |  |  | 
2 | CC(=O)NC(CCP(C)(=O)O)C(=O)O (stereo not drawn) [N-acetyl-PTC, N-acetylphosphinothricin] |  |  |  | No deacetylation activity | taken up by plants and transported and not degraded immediately | neither substance is herbicidally active | the plants are then killed | stable in the plant cell and transported into all cells | Neither of the two substances has recognizably negative consequences | efficient inhibition of GS activity |  | 
3 | CC(=O)NC(CCP(C)(=O)O)C(=O)NC(C)C(=O)NC(C)C(=O)O (stereo not drawn) [N-acetyl-PTT, N-acetylphosphinothricin tripeptide] |  |  |  | No deacetylation activity | taken up by plants and transported and not degraded immediately | neither substance is herbicidally active | the plants are then killed |  | Neither of the two substances has recognizably negative consequences |  |  | 
4 | C[C@H](NC(=O)[C@H](C)NC(=O)[C@@H](N)CCP(C)(=O)O)C(=O)O [PTT, phosphinothricylalanylalanine] | reacts very sensitively |  |  |  |  |  |  |  |  |  | active against Gram-positive and Gram-negative bacteria | also against the fungus Botrytis cinerea
